In the experiment the test system is P388 leukemia ip, CD2F1 mice, survival T/C. The experiment can be described thus: NCI In Vivo Anticancer Drug Screen. Data for tumor model P388 Leukemia (intraperitoneal) in CD2F1 (CDF1) mice. The settings on record: endpoint: median survival time, higher = longer survival. In outline: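 Mice carrying the transplanted tumor received test compound or vehicle. Survival was recorded in each group, and the value is the treated-group measurement divided by that of the vehicle-treated control group.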

The mark [1] stands for this setting: dose: 100.0 mg/kg/injection, schedule: Q04DX002 (ip), vehicle: saline with Tween-80.
[2] abbreviates: dose: 200.0 mg/kg/injection, schedule: Q04DX002 (ip), vehicle: saline with Tween-80.
[3] abbreviates: dose: 400.0 mg/kg/injection, schedule: Q04DX002 (ip), vehicle: saline with Tween-80.
[4] abbreviates: dose: 50.0 mg/kg/injection, schedule: Q01DX005 (ip), vehicle: Klucel (hydroxypropylcellulose) (HPC).
Setting [5] is: dose: 100.0 mg/kg/injection, schedule: Q01DX005 (ip), vehicle: Klucel (hydroxypropylcellulose) (HPC).
[6] abbreviates: dose: 200.0 mg/kg/injection, schedule: Q01DX005 (ip), vehicle: Klucel (hydroxypropylcellulose) (HPC).
Where [7] appears, read: dose: 60.0 mg/kg/injection, schedule: Q01DX005 (ip), vehicle: saline with Tween-80.
Setting [8] is: dose: 120.0 mg/kg/injection, schedule: Q01DX005 (ip), vehicle: saline with Tween-80.
[9] abbreviates: dose: 240.0 mg/kg/injection, schedule: Q01DX005 (ip), vehicle: saline with Tween-80.
The mark [10] stands for this setting: dose: 100.0 mg/kg/injection, schedule: Q01DX001 (ip), vehicle: saline.
Where [11] appears, read: dose: 200.0 mg/kg/injection, schedule: Q01DX001 (ip), vehicle: saline.
Where [12] appears, read: dose: 400.0 mg/kg/injection, schedule: Q01DX001 (ip), vehicle: saline.
Where [13] appears, read: dose: 60.0 mg/kg/injection, schedule: Q01DX005 (ip), vehicle: Klucel (hydroxypropylcellulose) (HPC).
The mark [14] stands for this setting: dose: 120.0 mg/kg/injection, schedule: Q01DX005 (ip), vehicle: Klucel (hydroxypropylcellulose) (HPC).
Setting [15] is: dose: 240.0 mg/kg/injection, schedule: Q01DX005 (ip), vehicle: Klucel (hydroxypropylcellulose) (HPC).
Where [16] appears, read: dose: 100.0 mg/kg/injection, schedule: Q01DX009 (ip), vehicle: Klucel (hydroxypropylcellulose) (HPC).
Where [17] appears, read: dose: 200.0 mg/kg/injection, schedule: Q01DX009 (ip), vehicle: Klucel (hydroxypropylcellulose) (HPC).
[18] abbreviates: dose: 100.0 mg/kg/injection, schedule: Q01DX009 (ip), vehicle: saline.

Molecules are shown by their SMILES. Several values for one entry are separate records, joined by “and”; a condition that tells them apart may be missing. Identical values can stand only once. Toxic doses and inconclusive results are not listed.

In PubChem BioAssay AID330 (DTP/NCI, 2004) one finds T/C data, which are given here for 24 compounds.

On to `NC(=O)CC1Cc2ccc3ccc(O)cc3c2C1=O` (configuration not stated), for which the T/C was 100 % of control (dose: 12.5 mg/kg/injection, schedule: Q01DX009 (ip), vehicle: distilled water + Tween-80); 97 % of control (dose: 25.0 mg/kg/injection, schedule: Q01DX009 (ip), vehicle: distilled water + Tween-80); 93 % of control (dose: 50.0 mg/kg/injection, schedule: Q01DX009 (ip), vehicle: distilled water + Tween-80); 94 % of control (dose: 100.0 mg/kg/injection, schedule: Q01DX009 (ip), vehicle: distilled water + Tween-80); 95 % of control (dose: 200.0 mg/kg/injection, schedule: Q01DX009 (ip), vehicle: distilled water + Tween-80).
Take `Cn1c2ccccc2c2nnc(N/N=C/c3ccccn3)nc21`: the T/C was 98 % of control and 111 % of control and 113 % of control under setting [1]; 106 % of control and 113 % of control and 114 % of control under setting [2]; 106 % of control and 113 % of control under setting [3]; 104 % of control and 114 % of control (dose: 800.0 mg/kg/injection, schedule: Q04DX002 (ip), vehicle: saline with Tween-80).
With `COc1cc(CC(CC(=O)c2ccc3c(c2)OCO3)C(=O)O)cc(OC)c1OC` (configuration not stated), the T/C is, setting by setting: under setting [4], 94 % of control; under setting [5], 99 % of control; under setting [6], 94 % of control.
With `CO/N=C1\N=C(C)C(=N)N1c1ccccc1`, the T/C is, setting by setting: under setting [7], 104 % of control; under setting [8], 99 % of control; under setting [9], 107 % of control.
On to `CNC(=O)C1CCCCC1Br` (configuration not stated), for which the T/C under setting [4] is 103 % of control, the T/C under setting [5] is 103 % of control and the T/C under setting [6] is 105 % of control.
For `Cc1cc(C)nc(NS(=O)(=O)c2ccc(N=c3c4ccccc4n(-c4ccccc4)c4ccccc34)cc2)n1`, the T/C (dose: 50.0 mg/kg/injection, schedule: Q01DX005 (ip), vehicle: saline with Tween-80) is 97 % of control; the T/C (dose: 100.0 mg/kg/injection, schedule: Q01DX005 (ip), vehicle: saline with Tween-80) was 109 % of control; the T/C (dose: 200.0 mg/kg/injection, schedule: Q01DX005 (ip), vehicle: saline with Tween-80) is 90 % of control.
With `CCO/C(C)=[N+](/[O-])S(=O)(=O)c1c(C)cc(C)cc1C`, the T/C is, setting by setting: under setting [10], 103 % of control; under setting [11], 100 % of control; under setting [12], 104 % of control.
Take `Cc1cccc(=O)[n-]1.Cc1cccc(=O)[n-]1.Cc1cccc(=O)[n-]1.Cc1cccc(=O)[n-]1.[Cu+].[Cu+].[Cu+].[Cu+]`: the T/C is, setting by setting: (dose: 12.5 mg/kg/injection, schedule: Q04DX002 (ip), vehicle: Klucel (hydroxypropylcellulose) (HPC)) 108 % of control; (dose: 25.0 mg/kg/injection, schedule: Q04DX002 (ip), vehicle: Klucel (hydroxypropylcellulose) (HPC)) 109 % of control; (dose: 50.0 mg/kg/injection, schedule: Q04DX002 (ip), vehicle: Klucel (hydroxypropylcellulose) (HPC)) 100 % of control; (dose: 100.0 mg/kg/injection, schedule: Q04DX002 (ip), vehicle: Klucel (hydroxypropylcellulose) (HPC)) 108 % of control.
Take `CCC1=C(c2cccc(OC(C)=O)c2)C(C)c2ccc(OC(C)=O)cc21` (configuration not stated): the T/C was 96 % of control under setting [13], 95 % of control under setting [14] and 95 % of control under setting [15].
Regarding `O=C(Cc1ccccn1)c1ccccc1`, the T/C under setting [16] is 109 % of control; the T/C under setting [17] is 108 % of control; the T/C (dose: 400.0 mg/kg/injection, schedule: Q01DX009 (ip), vehicle: Klucel (hydroxypropylcellulose) (HPC)) was 110 % of control.
With `CCOC(=O)C(Cc1ccc(O)cc1)NC(=O)c1cc2c(cn1)[nH]c1ccccc12` (configuration not stated), the T/C was 101 % of control under setting [7] and 117 % of control under setting [8].
As for `Cc1nc2cncnc2n(CCN2CCOCC2)c1=O`, the T/C by setting is: under setting [13], 98 % of control; under setting [14], 95 % of control; under setting [15], 96 % of control.
Turning to `CC(C)NCC(O)COc1ccc(O)c(O)c1` (configuration not stated), the T/C by setting is: (dose: 25.0 mg/kg/injection, schedule: Q01DX009 (ip), vehicle: saline) 100 % of control; under setting [18], 123 % of control.
Regarding `CC(C)(C)c1cc(OS(=O)(=O)C(F)(F)C(F)(F)C(F)(F)C(F)(F)F)cc(C(C)(C)C)c1`, the T/C by setting is: (dose: 50.0 mg/kg/injection, schedule: Q01DX009 (ip), vehicle: saline with Tween-80) 106 % of control; (dose: 100.0 mg/kg/injection, schedule: Q01DX009 (ip), vehicle: saline with Tween-80) 108 % of control; (dose: 200.0 mg/kg/injection, schedule: Q01DX009 (ip), vehicle: saline with Tween-80) 108 % of control.
For `CC(C)P(C(C)C)C(C)C`, the T/C was 104 % of control (dose: 100.0 mg/kg/injection, schedule: Q01DX001 (ip), vehicle: saline with Tween-80); 104 % of control (dose: 200.0 mg/kg/injection, schedule: Q01DX001 (ip), vehicle: saline with Tween-80); 95 % of control (dose: 400.0 mg/kg/injection, schedule: Q01DX001 (ip), vehicle: saline with Tween-80).
Take `COc1cc(Cc2ccc3c(c2)OCO3)cc(OC)c1OC`: the T/C under setting [10] is 102 % of control, the T/C under setting [11] was 102 % of control and the T/C under setting [12] is 99 % of control.
Turning to `CC(=O)OC1C(=O)C2C(CC=C3CC(O)CC(O)C32C)C2CCC(C(C)C3CC(C)C(C)(C)O3)C12C` (configuration not stated), the T/C is 97 % of control (dose: 50.0 mg/kg/injection, schedule: Q01DX009 (ip), vehicle: saline); 100 % of control (dose: 100.0 mg/kg/injection, schedule: Q01DX001 (ip), vehicle: Klucel (hydroxypropylcellulose) (HPC)); 101 % of control under setting [18]; 97 % of control (dose: 200.0 mg/kg/injection, schedule: Q01DX001 (ip), vehicle: Klucel (hydroxypropylcellulose) (HPC)); 94 % of control (dose: 200.0 mg/kg/injection, schedule: Q01DX009 (ip), vehicle: saline); 96 % of control (dose: 400.0 mg/kg/injection, schedule: Q01DX001 (ip), vehicle: Klucel (hydroxypropylcellulose) (HPC)).
With `CCCCOP(O)(=S)OCCCC`, the T/C reads like this: under setting [1], 108 % of control; (dose: 100.0 mg/kg/injection, schedule: Q04DX003 (ip), vehicle: saline with Tween-80) 105 % of control and 100 % of control; under setting [2], 104 % of control; (dose: 200.0 mg/kg/injection, schedule: Q04DX003 (ip), vehicle: saline with Tween-80) 106 % of control and 100 % of control; under setting [3], 95 % of control; (dose: 400.0 mg/kg/injection, schedule: Q04DX003 (ip), vehicle: saline with Tween-80) 101 % of control and 106 % of control.
For the compound `O=c1[nH]c2ccccc2n1C1CCN(CCOc2ccccc2)CC1`, the T/C is 95 % of control (dose: 50.0 mg/kg/injection, schedule: Q01DX009 (ip), vehicle: Klucel (hydroxypropylcellulose) (HPC)); 102 % of control under setting [16]; 95 % of control under setting [17].
Consider `C1CCC2OCCOCCOCCOCCOC2C1` (configuration not stated), for which the T/C (dose: 50.0 mg/kg/injection, schedule: Q01DX005 (ip), vehicle: saline) was 95 % of control and the T/C (dose: 100.0 mg/kg/injection, schedule: Q01DX005 (ip), vehicle: saline) is 95 % of control.
Take `N#CC(C(=O)CCC(=O)NCCc1ccccc1)c1nc2ccccc2s1` (configuration not stated): the T/C reads like this: under setting [7], 103 % of control; under setting [8], 100 % of control; under setting [9], 100 % of control.
With `CN(C)N=Nc1ccc(NC(N)=O)cc1`, the T/C (dose: 100.0 mg/kg/injection, schedule: Q04DX003 (ip), vehicle: saline + Tween-80 + alcohol) was 154 % of control.
In the case of `COc1cc2c(cc1OC)C(CO)C1c3cc4c(cc3CCN1C2)OCO4` (configuration not stated), the T/C was 98 % of control (dose: 50.0 mg/kg/injection, schedule: Q04DX003 (ip), vehicle: distilled water + Tween-80); 98 % of control (dose: 100.0 mg/kg/injection, schedule: Q04DX003 (ip), vehicle: distilled water + Tween-80); 96 % of control (dose: 200.0 mg/kg/injection, schedule: Q04DX003 (ip), vehicle: distilled water + Tween-80); 96 % of control (dose: 400.0 mg/kg/injection, schedule: Q04DX003 (ip), vehicle: distilled water + Tween-80).
`CCOC(=O)NC(=N/C(=C/c1cccc(C)n1)c1ccccc1)c1ccccc1`: the T/C is, setting by setting: under setting [13], 93 % of control; under setting [14], 91 % of control.
